Blank lines part the entries; values can stand above or below the molecule they belong to.
What was measured:
[1] = In vitro drug release assay from polymeric paste (RP-HPLC-UV); format: physicochemical; details: for drug released by day 7: 8% w/w lidocaine; for drug released by day 50: PEG:PLGA 63:37 and PEG:PLGA:Diblock 50:37:13 pastes, 1% docetaxel, 4% enzalutamide, FIG. 12A, 12B
Description: The drug-loaded paste can be aliquoted for in vitro release studies. Paste (50-100 mg) is deposited at the bottom of a test tube and release medium is added (5-10 mL, sink conditions). Release medium is phosphate buffered saline (PBS, 10 mM, pH 7.4)) or PBS containing 1% Albumin. The test tubes are kept in a 37° C. incubator until the end of the study. Release samples are taken at appropriate time points by replacing the complete release medium (supernatant) and analyzing it for total drug using Reversed phase high-performance liquid chromatography with ultraviolet (UV) detection (RP-HPLC-UV).

[2] = Local delivery of lidocaine paste subcutaneously in rats, serum lidocaine; format: in vivo; details: for maximum serum concentration: subcutaneous, rats
Description: (§1) Five groups of rats (male, Sprague Dawley™) with six animals in each group received one injection of paste formulation (0.1 mL) subcutaneously in their flank. The paste formulation was based on a 50:50 mixture of PEG 300™ and PLGA. Lidocaine was incorporated into the paste at 80, 100, 120, 140, and 160 mg per g of paste. The corresponding doses for each group were 23, 29, 36, 40 and 45 mg of Lidocaine per kg.
Blood was collected from the saphenous vein over four weeks at 0, 0.25, 1, 4, 24, 48, 168 336, 504 and 672 hours after injection. Lidocaine concentrations in rat serum were determined using ultra high performance liquid chromatography tandem mass spectrometry (UHPLC-MS/MS). A non-compartmental analysis was then applied to each data set using Phoenix 64™ (Build 6.3.0.395) WinNonlin 63™ to determine relevant pharmacokinetic parameters.
as §1, with “Sprague Dawley)” for “Sprague Dawley™)”, “of lidocaine” for “of Lidocaine”

[3] = single local injection, regional delivery of lidocaine; cited from earlier work
[4] = Kidney pelvis injection of gemcitabine paste; format: in vivo, pigs; details: 5% gemcitabine in sodium hyaluronate containing paste, pig kidney pelvis
Description: After placement of a ureteral catheter, three pigs received an injection of 1-2 mL of polymeric paste into the kidney pelvis. After removal of the ureteral catheter, a urinary catheter was placed and urine collected for 3 h intervals over 24 h. Blood was collected from an ear vein over 24 h and gemcitabine concentrations were determined using ultra high performance liquid chromatography tandem mass spectrometry (UHPLC-MS/MS).
The drug gemcitabine was incorporated at 5% (m/m) in the sodium hyaluronate containing paste. This paste was injected through the 5 F catheter into the kidney pelvis of a pig.

[5] = PEG:PLGA:Diblock 50:37:13, lidocaine 8%, cephalexin 2%, ibuprofen 5%, FIG. 18
[6] = PEG:PLGA:Diblock 50:37:13, lidocaine 10%, desoximetasone 1%, FIG. 14
[7] = PEG:PLGA:Diblock 50:37:13, Tamsulosin 2% w/w, FIG. 17
[8] = PEG:PLGA 50:50 paste, docetaxel 4%, bicalutamide 4%, VPC-27 10%, FIG. 3A
[9] = PEG:PLGA:Diblock 50:37:13, docetaxel 0.25%, bicalutamide 4%, VPC-27 4%, FIG. 5
[10] = high diblock concentration (PEG:PLGA:Diblock 50:25:25), docetaxel 0.5%, FIG. 6D
[11] = low diblock concentration (PEG:PLGA:Diblock 50:43:7), docetaxel 0.5%, FIG. 6A

drug released by day 35 [1, 5]: approximately 70%
drug released, burst release by day one [1, 5]: 54%
Compound: CC(C)Cc1ccc(C(C)C(=O)O)cc1 (stereo not shown) [Ibuprofen]

drug release at 1 day ([1]; PEG:PLGA:Diblock 50:37:13, cephalexin between 2 and 19% loading, PBS without albumin, FIG. 10): almost all drug was released
drug released, maximum on day 3 [1, 5]: 80%
Compound: CC1=C(C(=O)O)N2C(=O)[C@@H](NC(=O)[C@H](N)c3ccccc3)[C@H]2SC1 [Cephalexin]

drug released by day 35 [1, 6]: 100%
drug released, burst within the first day [1, 6]: 50%
Compound: C[C@@H]1C[C@H]2[C@@H]3CCC4=CC(=O)C=C[C@]4(C)[C@@]3(F)[C@@H](O)C[C@]2(C)[C@H]1C(=O)CO [desoximetasone]

drug released by day 6 [1, 7]: 70%
drug released on day 21 [1, 7]: 80%
drug released, burst phase on day 1 [1, 7]: 47%
Compound: CCOc1ccccc1OCCN[C@H](C)Cc1ccc(OC)c(S(N)(=O)=O)c1 [Tamsulosin]

Compound: CCN(CC)CC(=O)Nc1c(C)cccc1C [lidocaine]
maximum serum concentration ([2]; 80 mg/g paste (PEG 300:PLGA 50:50), 23 mg/kg): 557.26 ± 81.15 ng/mL
maximum serum concentration ([2]; 100 mg/g paste (PEG 300:PLGA 50:50), 29 mg/kg): 578.90 ± 162.59 ng/mL
maximum serum concentration ([2]; 120 mg/g paste (PEG 300:PLGA 50:50), 36 mg/kg): 638.03 ± 190.61 ng/mL
maximum serum concentration ([2]; 140 mg/g paste (PEG 300:PLGA 50:50), 40 mg/kg): 855.98 ± 196.18 ng/mL
maximum serum concentration ([2]; 160 mg/g paste (PEG 300:PLGA 50:50), 45 mg/kg): 1148.88 ± 838.97 ng/mL
maximum concentrations detected in serum in each group ([2]; all studied strengths, below upper limit of therapeutic range): < 5000 ng/mL
duration [3]: 60 to 120 min
onset [3]: 3 min
drug released by day 7 ([1]; PEG:PLGA:Diblock 50:37:13, crescent shape): 88%
drug released by day 7 ([1]; PEG:PLGA:Diblock 50:37:13, cylinder shape): 92%
drug released by day 7 ([1]; PEG:PLGA:Diblock 50:37:13, hemisphere shape): approximately 65%
drug released by day 35 [1, 5]: approximately 70%
drug released, burst release by day one [1, 5]: 54%
drug released by day 35 [1, 6]: 80%
drug released, burst within the first day [1, 6]: 50%
drug released by day 18 ([1]; all PEG:PLGA pastes without diblock (50:50, 55:45, 60:40), 8% lidocaine, FIG. 15): 100%

drug released, fast burst over 5 days [1, 8]: 10%
further encapsulated drug released over the next 40 days [1, 8]: 20%
drug release on day 18 ([1]; PEG:PLGA 55:45 paste without diblock, docetaxel 1%, bicalutamide 4%, VPC-27 4%, FIG. 8): around 10%
drug released by day 50 [1]: approximately 50%
drug released after one day [1, 9]: 24%
drug released on day 35 [1, 9]: 32%
drug release at day 8 ([1]; PEG:PLGA:Diblock 50:37:13, docetaxel 1%, rapamycin 1%, VPC-27 4%, FIG. 9): ~45%
drug released on day 21 [1, 10]: 78%
drug released, burst on day 1 [1, 10]: 67%
drug released on day 21 [1, 11]: 34%
drug released, burst on day 1 [1, 11]: 20%
Compound: CC(=O)O[C@@]12CO[C@@H]1C[C@H](O)[C@@]1(C)C(=O)[C@H](O)C3=C(C)[C@@H](OC(=O)[C@H](O)[C@@H](NC(=O)OC(C)(C)C)c4ccccc4)C[C@@](O)([C@@H](OC(=O)c4ccccc4)[C@H]21)C3(C)C [docetaxel]

drug released by day 50 [1]: approximately 40%
Compound: CNC(=O)c1ccc(N2C(=S)N(c3ccc(C#N)c(C(F)(F)F)c3)C(=O)C2(C)C)cc1F [enzalutamide]

Serum gemcitabine levels ([4]; FIG. 25B): very low, but detectable in all pigs
Compound: Nc1ccn([C@@H]2O[C@H](CO)[C@@H](O)C2(F)F)c(=O)n1 [gemcitabine]
blockage of the ureter [4]: did not result in any blockage of the ureter
Gemcitabine levels in urine ([4]; FIG. 25A): initially high and levelled off after 5-7 hours

— patent US11167034B2, “Polymeric paste compositions for drug delivery” (The University of British Columbia, priority 2017, dated 2021)
